Laboratory results published in the NIST ThermoML archive (doi:10.1021/je400431e).
Numbers after ± are expanded uncertainties.

Assay: mn = molality of the nth substance listed, in mol/kg
Conditions: 298 K, Ring tensiometer

CCCCCCCCCCCC[N+](C)(C)C.[Cl-] [N,N,N-trimethyl-1-dodecanaminium chloride] + O
Conditions | surface tension liquid-gas [mN/m]
m1 = 3e-05 | 56.38 ± 1.8
m1 = 5e-05 | 51.17 ± 1.6
m1 = 7e-05 | 47.18 ± 1.4
m1 = 0.0001 | 41.7 ± 1.2
m1 = 0.00015 | 35.66 ± 1.1
m1 = 0.0002 | 31.91 ± 0.99
m1 = 0.0003 | 28.13 ± 0.89
m1 = 0.0005 | 25.41 ± 0.82
m1 = 0.0007 | 25.28 ± 0.82
m1 = 0.001 | 25.68 ± 0.83
m1 = 0.0013 | 25.4 ± 0.82
m1 = 0.0016 | 25.52 ± 0.83

CCCCCCCCCCCCOS(=O)(=O)[O-].[Na+] [sodium dodecyl sulfate] + O
Conditions | surface tension liquid-gas [mN/m]
m1 = 0.00013 | 66.84 ± 7.5
m1 = 0.00031 | 60.83 ± 4.3
m1 = 0.00102 | 52.39 ± 2
m1 = 0.00303 | 45.05 ± 1.4
m1 = 0.00501 | 40.55 ± 1.2
m1 = 0.007 | 38.58 ± 1.1
m1 = 0.008 | 37.41 ± 1.1
m1 = 0.009 | 37.73 ± 1.1
m1 = 0.01 | 37.99 ± 1.1
m1 = 0.012 | 37.76 ± 1.1
